Assay results published in patent US20220168392A1 (priority 2019, published 2022).
Square brackets hold non-standard residues; d marks the D form. * marks the point of attachment. 2Nal = N[C@@H](Cc1ccc2ccccc2c1)C(=O)O; Propionyl = CCC(=O)*; Sar = CNCC(=O)O

Legend:
[1] = test system: CD21F1 male mice exposed to TBI; experiment: Dose reduction factor (DRF) and long-term survival study after TBI; assay type: in vivo, mouse
Excerpt: Methods: CD21F1 male mice were used in a DRF (dose reduction factor) study to determine LD50/30 for animals administered with RWJ-800088 or it's vehicle (saline). This included irradiating cohorts of 24 animals at various total body irradiation (TBI) doses (Saline: 7.5, 8.0, 8.5, 9.0, 9.5, and 10 Gy; RWJ-800088: 10.5, 11.0, 11.5, 11.75, 12, and 12.5 Gy). Following the 30 day survival study, surviving animals were monitored for up to 1 year with planned collection points at 6 months and 1 year.
RWJ-800088 administration timing and doses: RWJ-800088 was administered […] at a dose of 1 mg/kg 24 h prior to irradiation.

[2] = test system: female rats exposed to LD70 total body gamma radiation; experiment: Rat whole body irradiation study; assay type: in vivo
Description: FIGS. 16A-B show the percent survival in female SD Rats (n=8/group) administered RWJ-800088 (TPOm) at different time points and dose levels—FIG. 16A: 3000 μg/kg at 6, 24 and 48 hours post TBI (7.18 Gy), and FIG. 16B: 300 and 3000 μg/kg at 24 hours post TBI (7.18 Gy).
RWJ-800088 was administered at a 3000 μg/kg dose by SC injection to female rats (n=8) at 6, 24, or 48 hours and additionally 300 μg/kg dose at 24 hours after exposure to an LD70 total body dose of gamma radiation (Gammacell 3000 irradiator).

[3] = test system: Mouse; experiment: Maximum platelet elevation relative to baseline in normal healthy mice, single escalating doses; assay type: in vivo; parameters: key to pharmacodynamics (PD) effect class of the dose (beneficial effects on survival): **: large pharmacodynamics (PD) effect; *: modest effect; conditions: for Mouse Max Platelet Ratio: 3DP03-Piedmont-01
Excerpt: (§1) The ratio of the maximum platelet counts to the baseline platelet counts following single escalating doses of RWJ-800088 to mice, rats, dogs, rhesus monkeys and human healthy volunteers is shown in Table 5. The dose required to achieve a 2-3.5-fold elevation in humans is ˜100-fold lower compared to mice, ˜1,000-fold lower compared to rats and >10,000-fold lower compared to canines and NHPs. […] The species differences in potency has been described for other TPO mimetics in the literature and is attributed to differences in receptor affinity (Erickson-Miller C L, et al. Discovery and characterization of a selective, nonpeptidyl thrombopoietin receptor agonist. Exp. Hematol. 2005; 33:85-93). […] It is discovered that the dose of RWJ-800088 that produces a survival benefit and protects against vascular and organ injury is the dose that produces a 2-4 fold elevation of platelets (Table 6).

[4] = test system: healthy men; experiment: Study NAP1001: single IV dose in healthy men (platelet counts, safety); assay type: in vivo, human; parameters: key to pharmacodynamics (PD) effect class of the dose (beneficial effects on survival): **: large pharmacodynamics (PD) effect; *: modest effect; conditions: for Humans Max Platelet Ratio: NAP 1001
Description: In the FIH, single dose, Phase 1 clinical study NAP1001, 40 healthy men were enrolled, and 30 subjects received a single IV dose of RWJ-800088 as a 5-mg/mL solution in saline (dose range 0.375 to 3 μg/kg); 10 subjects received placebo. […] Thirty-three (83%) of 40 subjects reported at least 1 treatment-emergent adverse event throughout the study. Similar proportions of subjects reported treatment-emergent adverse events following administration of placebo (9 [90%] of 10 subjects) and RWJ-800088 (24 [80%] of 30 subjects). […] Mean platelet counts increased with increasing RWJ-800088 dose compared with placebo from Day 6 onwards, peaking at Days 10 to 12 before gradually returning to baseline by Day 21 (FIG. 19).
as §1

[5] = Group 7, 10.5 Gy, 1 mg/kg 24 h prior to irradiation
[6] = Group 9, 11.5 Gy, 1 mg/kg 24 h prior to irradiation
[7] = Group 12, 12.5 Gy, 1 mg/kg 24 h prior to irradiation

methoxypolyethyleneglycol20000-propionyl-L-Isoleucyl-L-Glutamyl-Glycyl-L-Prolyl-L-Threonyl-L-Leucyl-L-Arginyl-L-Glutaminyl-L-2-Naphthylalanyl-L-Leucyl-L-Alanyl-L-Alanyl-L-Arginyl-Sarcosyl-Ne-(methoxypolyethyleneglycol20000-propionyl-L-Isoleucyl-L-Glutamyl-Glycyl-L-Prolyl-L-Threonyl-L-Leucyl-L-Arginyl-L-Glutaminyl-L-2-Naphthylalanyl-L-Leucyl-L-Alanyl-L-Alanyl-L-Arginyl-Sarcosyl-)-Lysinamide ({mPEG 20 kDa-Propionyl}-IEGPTLRQ[2Nal]LAAR[Sar]K-NH2; also: dimer: second identical mPEG-propionyl chain on Lys Nε of C-terminal lysinamide) [RWJ-800088]
DRF value ([1]; 1 mg/kg 24 h prior to irradiation, 95% CI 1.16-2.54): 1.42 | LD50 value (radiation dose) for RWJ-800088 treated animals ([1]; 1 mg/kg 24 h prior to irradiation, LD50/30): 12.64 Gy | # Surviving (6 months) [1, 5]: 10/10 | # Surviving (12 months) [1, 5]: 5/5 | # Surviving (30 days) [1, 5]: 24/24 | # Surviving (6 months) [1, 6]: 10/10 | # Surviving (12 months) [1, 6]: 5/5 | # Surviving (30 days) [1, 6]: 22/24 | # Surviving (12 months) [1, 7]: 0/3 | # Surviving (30 days) [1, 7]: 11/24 | # Surviving (6 months) ([1]; Group 12, 12.5 Gy, two animals were added from 12 Gy): 7/10 | Effects ([2]; Rats, whole body irradiation, whole wrapped cell: Enhanced survival, mitigation against thrombocytopenia, anemia): Enhanced survival, | survival vs vehicle and RWJ-800088 at 48 hours post-irradiation ([2]; female rats, 3000 μg/kg SC at 6 and 24 hours post TBI (FIG. 16A)): significantly higher | survival, 3000 μg/kg compared with 300 μg/kg ([2]; female rats, 24 hours post irradiation (FIG. 16B)): substantially increased | Mouse Max Platelet Ratio ([3]; dose 10 μg/kg): 0.9 ± 0.6 | Mouse Max Platelet Ratio ([3]; dose 30 μg/kg): 1.8 ± 0.4 | Mouse Max Platelet Ratio ([3]; dose 100 μg/kg): 2.5 ± 1.1 | Mouse Max Platelet Ratio ([3]; dose 300 μg/kg): 3.9 ± 0.9 | Mouse Max Platelet Ratio ([3]; dose 1000 μg/kg): 4.3 ± 0.5 | Mouse Max Platelet Ratio ([3]; dose 3000 μg/kg): 3.4 ± 1 | Dose for 2.0-4x Platelet Elevation in Healthy Subjects ([3]; Mice): ≥0.1 mg/kg | pharmacodynamics (PD) effect class of the dose (beneficial effects on survival) ([3]; Mouse, dose 100 μg/kg): ** | Average of the Maximum Platelet Elevation/Baseline Platelet Counts ([3]; Mouse, dose 300 μg/kg): 3.9 | pharmacodynamics (PD) effect class of the dose (beneficial effects on survival) ([3]; Mouse, dose 300 μg/kg): ** | pharmacodynamics (PD) effect class of the dose (beneficial effects on survival) ([3]; Mouse, dose 1000 μg/kg): ** | pharmacodynamics (PD) effect class of the dose (beneficial effects on survival) ([3]; Mouse, dose 3000 μg/kg): ** | Platelet Elevation in Non-Irradiated Animals (fold increase over baseline) ([3]; TPOm dose 0.1 mg/kg): 2.50 fold increase over baseline | Platelet Elevation in Non-Irradiated Animals (fold increase over baseline) ([3]; TPOm dose 0.3 mg/kg): 3.90 fold increase over baseline | Platelet Elevation in Non-Irradiated Animals (fold increase over baseline) ([3]; TPOm dose 1 mg/kg): 4.30 fold increase over baseline | Platelet Elevation in Non-Irradiated Animals (fold increase over baseline) ([3]; TPOm dose 2 mg/kg, imputed as mean of the 1 mg/kg and 3 mg/kg cohorts): 3.85 fold increase over baseline | Platelet Elevation in Non-Irradiated Animals (fold increase over baseline) ([3]; TPOm dose 3 mg/kg): 3.40 fold increase over baseline | subjects reporting treatment-emergent adverse events ([4]; 24 of 30 subjects, single IV dose 0.375 to 3 μg/kg): 80% | Average of the Maximum Platelet Elevation/Baseline Platelet Counts ([4]; Human, dose 3 μg/kg): 3.3 | Dose for 2.0-4x Platelet Elevation in Healthy Subjects ([4]; Humans): ≥0.00225 mg/kg | pharmacodynamics (PD) effect class of the dose (beneficial effects on survival) ([4]; Humans, dose 2.25 μg/kg): ** | pharmacodynamics (PD) effect class of the dose (beneficial effects on survival) ([4]; Humans, dose 3 μg/kg): ** | Humans Max Platelet Ratio ([4]; dose 0.375 μg/kg): 1.4 ± 0.3 | Humans Max Platelet Ratio ([4]; dose 0.75 μg/kg): 1.8 ± 0.4 | Humans Max Platelet Ratio ([4]; dose 1.5 μg/kg): 1.9 ± 0.7 | Humans Max Platelet Ratio ([4]; dose 2.25 μg/kg): 2.1 ± 0.8 | Humans Max Platelet Ratio ([4]; dose 3 μg/kg): 3.1 ± 1.1 | enhancement of platelets over background ([4]; humans, 3 μg/kg (FIG. 19)): 3.5 fold | incidence of adverse events, dose relation ([4]; single IV dose 0.375 to 3 μg/kg): not dose related | tolerability ([4]; single IV doses up to and including 3 μg/kg, healthy men): well tolerated
